# Measurements published in PMC5554537 (Frontiers in Pharmacology, 2017).
# Read-outs that look alike come from different tables or passages of the source.
# Assays:
# [1] = Compartmental plasma PK model; type: in vivo; settings: for Central compartment volume V1: 1-Oxide and Nor-oxide values fixed; for clearance: model clearance of the compound, read-out: CL (converted)
# From the text: This model, shown schematically in Figure 9, is based on total (free + bound) plasma concentrations; the major metabolites (M14, M13, and M18) are explicit and clearance of SN30000 occurs only by reduction to M14. The i.p. bioavailability of SN30000 was modeled with an additional term for loss from the peritoneal compartment (kloss).
# [2] = Stability in mouse plasma (QC samples); type: physicochemical
# From the text: using octa-deuterated internal standards of SN30000, M13 and M14 synthesised as previously reported (Wang et al., 2012). Intra- and inter-day precision (expressed as relative standard deviation (RSD) and accuracy (expressed as percentage of the nominal value) were deter mined by analy sis of replicates (n=6) of low and high quality control (QC) samples on three different days. The lower limit of quantitation (LLOQ) was defined as the lowest concentration providing RSD and accuracy < 20%. Recovery from plasma and liver ho mogenates was tested at the three QC levels. The recoveries were evaluated by comparing extracted samples with blank extracted solutions spiked with analytes of the same amount.
# Matrix effects, defined as the change in response due to the presence of other substances in the samples, were evaluated by comparing the analytes diluted into the blank plasma or liver extracted solution with that of the same stock solutions diluted in water. Three different concentration levels (low, medium and high QC) were evaluated by analysing three samples at each level. Accuracy , precision, recovery and matrix effects were all acceptable over the concentration ranges evaluated for plas ma (Supplementary Table 1) and for liver homogenates (Supplementary Table 2).
# Stability of the analytes in mouse plasma (Supplementary Table 3) or liver homogenate (Supplementary Table 4) was confirmed during holding of QC samples on ice for up to 2 h under nor mal laboratory lighting, although there was a trend towards loss of SN30000 in plasma samples held in clear microcentrifuge tubes which may reflect the known photosensitivity of the compound (Gu et al., 2014). This loss was reduced by use of red microcentrifuge tubes, and eliminated by black tubes. Stability in both matrices was also confir med for one month storage at -80°C and for three freeze-thaw cycles, while MeOH-deproteinised samples w ere stable for 12 h at 4°C in the autosampler (Supplementary Tables
# [3] = i.p. SN30000 186 mg/kg
# Description: M18 was quantified by absorbance detection with reference to an external standard calibration curve.
# Concentration-time data were analyzed by non-compartmental analysis using Phoenix WinNonlin (ver 6.4, Build 6.4.0768 Pharsight, United States); all AUC values were extrapolated to infinity using the linear trapezoidal rule.
# SN30000, M14 and M13 were quantified by LC-MS/MS using stable isotope internal standards, while M18 was quantified by absorbance detection using external standard calibration curves.
# [4] = tested on: HCT116 cells; experiment: Antiproliferative potency, 4 h exposure, sulforhodamine B; type: cell-based, human; settings: for IC50: Homo sapiens, HCT-116, 4 h, HCT116, 4 h exposure, read-out: IC50
# Description: Antiproliferative potency of SN30000 and its major metabolites following 4 h exposure of HCT116 cells under aerobic or anoxic conditions. […]
# a HCT116 cells, originally from ATCC, were authenticated by short tandem repeat profiling and confir med mycoplasma-free by PCR/ELISA assay . Cells were passaged in Alpha MEM with 5% foetal bovine serum without antibiotics. In vitro cytotoxicity of SN30000 and metabolites was measured as the inhibition of cell proliferation as described previously (Gu et al., 2009). Briefly, cells were exposed to compounds for 4 h under aerobic (20% O2) or anoxic (Bactron anaerobic chamber) conditions and then grown in an aerobic 5% CO 2 incubator for 5 d before staining with sulforhodamine B. IC50 values were deter mined by interpolation (nonlinear regression to the standard Hill equation) as the drug concentration reducing staining to 50% of controls on the same plate. b Values are mean ± SEM for the numb er of independent experiments shown in parentheses.
# [5] = tested on: NIH-III mice; experiment: Core body (rectal) temperature and acute clinical signs after dosing; type: in vivo
# Description: Supplementary Figure 3. Initial rates of core temperature decrease in (untreated) NIH-III mice post- mortem: co mparison with initial temperature change ante- mortem following treatment with benzotriazine oxides at their MTD. Temperature was measured in rectu m and liver over 15 min. Initial rates of temperature loss (°C/min) were: post- mortem (rectum):
# (rectum) 0.33. The rectal temperature loss following dosing with M14 (135 mg/kg) was 0.6 °C/min (not shown for clarity). The drug-induced changes are redrawn from Fig. 4.
# [6] = plasma deproteinised in 3 vol MeOH, 12 h autosampler at 4°C, nominal SN30000 0.5, M14 0.25, M13 0.1 µM
# [7] = plasma deproteinised in 3 vol MeOH, 12 h autosampler at 4°C, nominal SN30000 5, M14 2.5, M13 1 µM
# [8] = plasma deproteinised in 3 vol MeOH, 12 h autosampler at 4°C, nominal SN30000 50, M14 25, M13 10 µM
# [9] = plasma, 1 month at -80°C, nominal SN30000 0.5, M14 0.25, M13 0.1 µM
# [10] = plasma, 1 month at -80°C, nominal SN30000 5, M14 2.5, M13 1 µM
# [11] = plasma, 1 month at -80°C, nominal SN30000 50, M14 25, M13 10 µM
# [12] = plasma, 1 h on ice, black vial, nominal SN30000 0.5, M14 0.25, M13 0.1 µM
# [13] = plasma, 1 h on ice, black vial, nominal SN30000 5, M14 2.5, M13 1 µM
# [14] = plasma, 1 h on ice, black vial, nominal SN30000 50, M14 25, M13 10 µM
# [15] = plasma, 1 h on ice, clear vial, nominal SN30000 0.5, M14 0.25, M13 0.1 µM
# [16] = plasma, 1 h on ice, clear vial, nominal SN30000 5, M14 2.5, M13 1 µM
# [17] = plasma, 1 h on ice, clear vial, nominal SN30000 50, M14 25, M13 10 µM
# [18] = plasma, 1 h on ice, red vial, nominal SN30000 0.5, M14 0.25, M13 0.1 µM
# [19] = plasma, 1 h on ice, red vial, nominal SN30000 5, M14 2.5, M13 1 µM
# [20] = plasma, 1 h on ice, red vial, nominal SN30000 50, M14 25, M13 10 µM
# [21] = plasma, 2 h on ice, black vial, nominal SN30000 0.5, M14 0.25, M13 0.1 µM
# [22] = plasma, 2 h on ice, black vial, nominal SN30000 5, M14 2.5, M13 1 µM
# [23] = plasma, 2 h on ice, black vial, nominal SN30000 50, M14 25, M13 10 µM
# [24] = plasma, 2 h on ice, clear vial, nominal SN30000 0.5, M14 0.25, M13 0.1 µM
# [25] = plasma, 2 h on ice, clear vial, nominal SN30000 5, M14 2.5, M13 1 µM
# [26] = plasma, 2 h on ice, clear vial, nominal SN30000 50, M14 25, M13 10 µM
# [27] = plasma, 2 h on ice, red vial, nominal SN30000 0.5, M14 0.25, M13 0.1 µM
# [28] = plasma, 2 h on ice, red vial, nominal SN30000 5, M14 2.5, M13 1 µM
# [29] = plasma, 2 h on ice, red vial, nominal SN30000 50, M14 25, M13 10 µM
# [30] = plasma, three freeze-thaw cycles, nominal SN30000 0.5, M14 0.25, M13 0.1 µM
# [31] = plasma, three freeze-thaw cycles, nominal SN30000 5, M14 2.5, M13 1 µM
# [32] = plasma, three freeze-thaw cycles, nominal SN30000 50, M14 25, M13 10 µM
# [33] = HT29 tumour, tumour-bearing mice
# [34] = liver, HT29 tumour-bearing mice
# [35] = plasma, HT29 tumour-bearing mice
# [36] = plasma, non-tumour-bearing mice
smiles,measurement,setting,value
c1c2c(cc3nc(CCCN4CCOCC4)nnc13)CCC2 [M13],Central compartment volume V1,[1],2.2 L/kg
same,clearance,"[1]; NIH-III, mouse, plasma, other: i.p. and i.v. datasets fitted simultaneously",76.7 L/h/kg
same,Vd,"[1]; NIH-III, mouse, plasma, other: i.p. and i.v. datasets fitted simultaneously, read-out: Steady state volume VSS",11.6 L/kg
same,Approximate % suppression per °C of CL,"[1]; mouse, in vivo",~23%
same,Peripheral compartment volume V2,"[1]; mouse, in vivo",9.38 L/kg
same,Bias,[2]; [6],-3.42%
same,Measured conc,[2]; [6],0.10 µM
same,Bias,[2]; [7],-1.26%
same,Measured conc,[2]; [7],0.99 µM
same,Bias,[2]; [8],5.41%
same,Measured conc,[2]; [8],10.54 µM
same,Bias,[2]; [9],1.68%
same,Measured conc,[2]; [9],0.10 µM
same,Bias,[2]; [10],1.94%
same,Measured conc,[2]; [10],1.00 µM
same,Bias,[2]; [11],1.85%
same,Measured conc,[2]; [11],11.05 µM
same,Bias,[2]; [12],-7.00%
same,Measured conc,[2]; [12],0.09 µM
same,Bias,[2]; [13],-7.17%
same,Measured conc,[2]; [13],0.93 µM
same,Bias,[2]; [14],5.90%
same,Measured conc,[2]; [14],10.59 µM
same,Bias,[2]; [15],-7.05%
same,Measured conc,[2]; [15],0.09 µM
same,Bias,[2]; [16],-3.76%
same,Measured conc,[2]; [16],0.96 µM
same,Bias,[2]; [17],-3.61%
same,Measured conc,[2]; [17],9.64 µM
same,Bias,[2]; [18],-5.72%
same,Measured conc,[2]; [18],0.09 µM
same,Bias,[2]; [19],-5.29%
same,Measured conc,[2]; [19],0.95 µM
same,Bias,[2]; [20],0.10%
same,Measured conc,[2]; [20],10.01 µM
same,Bias,[2]; [21],-0.52%
same,Measured conc,[2]; [21],0.10 µM
same,Bias,[2]; [22],1.13%
same,Measured conc,[2]; [22],1.01 µM
same,Bias,[2]; [23],0.55%
same,Measured conc,[2]; [23],10.06 µM
same,Bias,[2]; [24],-9.85%
same,Measured conc,[2]; [24],0.09 µM
same,Bias,[2]; [25],-4.92%
same,Measured conc,[2]; [25],0.95 µM
same,Bias,[2]; [26],-8.95%
same,Measured conc,[2]; [26],9.10 µM
same,Bias,[2]; [27],-7.29%
same,Measured conc,[2]; [27],0.09 µM
same,Bias,[2]; [28],-4.71%
same,Measured conc,[2]; [28],0.95 µM
same,Bias,[2]; [29],-3.91%
same,Measured conc,[2]; [29],9.61 µM
same,Bias,[2]; [30],-4.05%
same,Measured conc,[2]; [30],0.10 µM
same,Bias,[2]; [31],-2.61%
same,Measured conc,[2]; [31],0.97 µM
same,Bias,[2]; [32],4.39%
same,Measured conc,[2]; [32],10.44 µM
same,Concentrations in brain compared with plasma,[3],higher in brain than plasma
same,AUC (extrapolated to infinity),[3]; [33],57.7 µmol·h/kg
same,Cmax,[3]; [33],15.5 ± 2.2 µmol/kg
same,AUC (extrapolated to infinity),"[3]; brain, non-tumour-bearing mice",46.7 µmol·h/kg
same,Cmax,"[3]; brain, non-tumour-bearing mice",52.8 ± 4.1 µmol/kg
same,AUC (extrapolated to infinity),[3]; [34],158 µmol·h/kg
same,Cmax,[3]; [34],155.4 ± 8.4 µmol/kg
same,AUC (extrapolated to infinity),"[3]; liver, non-tumour-bearing mice",158 µmol·h/kg
same,Cmax,"[3]; liver, non-tumour-bearing mice",178.7 ± 8.1 µmol/kg
same,AUC (extrapolated to infinity),[3]; [35],14. 9 µmol. hr/kg
same,AUC (extrapolated to infinity),[3]; [36],13.0 µmol·h/kg
O=C(O)CCc1nc2cc3c(cc2[n+]([O-])n1)CCC3 [M18],Central compartment volume V1,[1],0.43 L/kg
same,clearance,"[1]; NIH-III, mouse, in vivo",0.23 L/h/kg
same,IC50,[4]; aerobic (20% O2),> 1670 µM
same,IC50,[4]; anoxic,> 1670 µM
same,Potency relative to SN30000 (fold less potent),[4]; anoxic HCT116 cultures,at least 1000 fold
same,Body weight loss,[5]; 36 mg/kg,no body weight loss was observed
same,Acute clinical signs and hypothermic response,[5]; 36 mg/kg i.p. or i.v.,no acute clinical signs or hypothermic response were observed
same,Detection in brain,[3],not detected in brain
same,Plasma concentration reached,[3]; negligible elimination up to 3 h,> 100 µM
same,AUC 0-3hr,[3]; HT29 tumour,34.8 µmol·h/kg
same,Cmax,[3]; [33],17.6 µmol/kg
same,AUC 0-3hr,[3]; [34],92 µmol·h/kg
same,Cmax,[3]; [34],46.1 ± 5.2 µmol/kg
same,AUC 0-3hr,"[3]; liver, non-tumour-bearing mice",107 µmol·h/kg
same,Cmax,"[3]; liver, non-tumour-bearing mice",53.5 ± 4.0 µmol/kg
same,AUC 0-3hr,[3]; [35],322 µmol·h/kg
same,AUC 0-3hr,[3]; [36],349 µmol·h/kg
